Reference: ChEMBL document CHEMBL3991601, “The target landscape of clinical kinase drugs” (Science, 2017)
Activity calls are given as the source filed them.

Legend:
[1] = molecular target: U5 small nuclear ribonucleoprotein 200 kDa helicase (Homo sapiens, UniProt O75643)
[2] = molecular target: Cyclin-dependent kinase 1 (Homo sapiens, UniProt P06493)
[3] = molecular target: T1, Serine/threonine-protein kinase STK11 (Homo sapiens, UniProt Q15831)
T1 sequence (Q15831 whole entry): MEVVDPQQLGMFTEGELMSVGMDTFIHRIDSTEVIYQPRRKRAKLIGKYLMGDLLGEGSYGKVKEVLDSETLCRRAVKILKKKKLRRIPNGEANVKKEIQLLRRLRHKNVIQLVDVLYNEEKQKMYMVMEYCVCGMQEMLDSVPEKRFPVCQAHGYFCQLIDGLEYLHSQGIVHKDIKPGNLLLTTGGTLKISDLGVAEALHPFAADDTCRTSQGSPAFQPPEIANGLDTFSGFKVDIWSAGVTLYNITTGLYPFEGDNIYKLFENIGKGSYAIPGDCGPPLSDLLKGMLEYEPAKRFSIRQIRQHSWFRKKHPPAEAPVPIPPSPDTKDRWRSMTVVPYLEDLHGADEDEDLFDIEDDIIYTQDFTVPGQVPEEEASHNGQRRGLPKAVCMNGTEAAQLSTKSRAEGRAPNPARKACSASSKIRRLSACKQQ

Ephrin type-B receptor 2 = molecular target: T2, Ephrin type-B receptor 2 (Homo sapiens, UniProt P29323)
T2 sequence (P29323 whole entry): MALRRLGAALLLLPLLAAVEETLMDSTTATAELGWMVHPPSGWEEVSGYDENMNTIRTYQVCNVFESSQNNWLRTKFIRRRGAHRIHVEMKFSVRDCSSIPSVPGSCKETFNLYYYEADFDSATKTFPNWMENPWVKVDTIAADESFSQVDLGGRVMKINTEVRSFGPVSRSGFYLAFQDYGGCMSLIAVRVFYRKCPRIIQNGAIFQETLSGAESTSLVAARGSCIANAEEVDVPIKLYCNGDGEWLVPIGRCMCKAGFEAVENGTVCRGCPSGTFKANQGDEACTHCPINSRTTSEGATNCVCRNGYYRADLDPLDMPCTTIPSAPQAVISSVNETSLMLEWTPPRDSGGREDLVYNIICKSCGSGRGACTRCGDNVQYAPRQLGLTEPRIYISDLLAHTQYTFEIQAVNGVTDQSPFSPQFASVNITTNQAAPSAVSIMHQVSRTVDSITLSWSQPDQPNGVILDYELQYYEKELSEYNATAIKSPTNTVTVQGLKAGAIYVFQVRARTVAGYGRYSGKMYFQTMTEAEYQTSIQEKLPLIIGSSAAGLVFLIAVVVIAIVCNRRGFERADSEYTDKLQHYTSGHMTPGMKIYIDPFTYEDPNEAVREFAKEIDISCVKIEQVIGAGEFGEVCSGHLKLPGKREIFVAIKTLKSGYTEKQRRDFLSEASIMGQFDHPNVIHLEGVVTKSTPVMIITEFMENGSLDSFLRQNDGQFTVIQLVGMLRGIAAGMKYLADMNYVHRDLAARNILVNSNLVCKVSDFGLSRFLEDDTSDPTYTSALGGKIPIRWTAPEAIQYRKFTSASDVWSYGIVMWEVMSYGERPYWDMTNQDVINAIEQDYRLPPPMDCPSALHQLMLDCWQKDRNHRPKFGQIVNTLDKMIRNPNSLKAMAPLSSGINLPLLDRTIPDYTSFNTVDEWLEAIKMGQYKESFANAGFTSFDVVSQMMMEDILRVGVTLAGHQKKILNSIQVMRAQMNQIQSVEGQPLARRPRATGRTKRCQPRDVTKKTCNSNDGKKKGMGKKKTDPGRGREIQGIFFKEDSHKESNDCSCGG

[4] = molecular target: Fibroblast growth factor receptor 1 (Homo sapiens, UniProt P11362)
[5] = molecular target: Mitogen-activated protein kinase 11 (Homo sapiens, UniProt Q15759)
Focal adhesion kinase 1 = Focal adhesion kinase 1 (Homo sapiens, UniProt Q05397)
[6] = molecular target: T3, cGMP-dependent protein kinase 1 (Homo sapiens, UniProt Q13976)
T3 sequence (Q13976 whole entry): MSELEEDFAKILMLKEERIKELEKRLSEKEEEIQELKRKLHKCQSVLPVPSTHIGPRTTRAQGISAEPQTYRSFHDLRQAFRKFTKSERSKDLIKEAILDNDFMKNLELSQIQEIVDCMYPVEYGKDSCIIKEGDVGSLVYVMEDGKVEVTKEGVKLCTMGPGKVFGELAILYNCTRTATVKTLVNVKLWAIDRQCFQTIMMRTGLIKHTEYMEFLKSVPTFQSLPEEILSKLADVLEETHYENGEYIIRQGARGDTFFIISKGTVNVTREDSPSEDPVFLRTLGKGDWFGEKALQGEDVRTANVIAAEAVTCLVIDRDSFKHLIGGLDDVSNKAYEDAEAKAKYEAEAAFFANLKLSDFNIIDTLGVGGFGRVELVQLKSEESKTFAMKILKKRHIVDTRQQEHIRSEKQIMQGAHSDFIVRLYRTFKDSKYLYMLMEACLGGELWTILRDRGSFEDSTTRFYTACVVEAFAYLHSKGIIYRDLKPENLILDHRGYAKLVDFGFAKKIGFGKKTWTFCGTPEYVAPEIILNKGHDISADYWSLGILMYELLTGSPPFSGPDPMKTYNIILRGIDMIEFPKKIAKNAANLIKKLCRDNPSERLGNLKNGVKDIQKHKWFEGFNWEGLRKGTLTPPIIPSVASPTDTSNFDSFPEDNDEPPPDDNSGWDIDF

[7] = molecular target: T4, Dual specificity mitogen-activated protein kinase kinase 3 (Homo sapiens, UniProt P46734)
T4 sequence (P46734 whole entry): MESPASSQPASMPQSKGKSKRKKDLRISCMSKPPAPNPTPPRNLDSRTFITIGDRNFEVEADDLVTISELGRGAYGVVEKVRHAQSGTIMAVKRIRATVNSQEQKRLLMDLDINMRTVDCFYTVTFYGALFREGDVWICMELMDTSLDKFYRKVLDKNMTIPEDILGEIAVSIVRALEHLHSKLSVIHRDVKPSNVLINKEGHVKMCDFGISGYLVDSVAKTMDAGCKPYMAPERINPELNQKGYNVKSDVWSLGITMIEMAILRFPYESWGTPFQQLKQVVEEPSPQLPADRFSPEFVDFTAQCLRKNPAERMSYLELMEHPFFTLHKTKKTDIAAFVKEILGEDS

[8] = molecular target: Cyclin-dependent kinase 4 (Homo sapiens, UniProt P11802)
[9] = molecular target: cAMP-dependent protein kinase catalytic subunit alpha (Homo sapiens, UniProt P17612)
Further: in the data inactive means no Kd found up to 30 µM.

Cyclin-dependent kinase 1, sequence (P06493 whole entry): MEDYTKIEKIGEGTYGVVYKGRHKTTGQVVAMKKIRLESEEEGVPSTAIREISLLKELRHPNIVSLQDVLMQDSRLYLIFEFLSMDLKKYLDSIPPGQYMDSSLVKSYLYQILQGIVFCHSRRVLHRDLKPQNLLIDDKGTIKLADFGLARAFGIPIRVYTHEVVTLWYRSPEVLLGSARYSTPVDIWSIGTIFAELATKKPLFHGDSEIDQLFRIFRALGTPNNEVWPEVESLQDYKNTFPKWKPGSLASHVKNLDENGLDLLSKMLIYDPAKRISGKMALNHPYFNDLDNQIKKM
Mitogen-activated protein kinase 11, sequence (Q15759 whole entry): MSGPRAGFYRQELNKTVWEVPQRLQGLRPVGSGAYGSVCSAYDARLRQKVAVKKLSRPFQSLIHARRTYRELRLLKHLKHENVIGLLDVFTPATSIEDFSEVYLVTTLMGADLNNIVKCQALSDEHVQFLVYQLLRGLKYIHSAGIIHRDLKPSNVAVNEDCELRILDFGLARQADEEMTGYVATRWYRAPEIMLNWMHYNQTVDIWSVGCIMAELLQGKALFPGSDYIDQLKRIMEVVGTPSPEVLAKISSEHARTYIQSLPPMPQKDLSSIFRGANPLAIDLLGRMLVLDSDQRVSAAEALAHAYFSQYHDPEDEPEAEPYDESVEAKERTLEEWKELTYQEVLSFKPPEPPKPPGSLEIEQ
Cyclin-dependent kinase 4, sequence (P11802 whole entry): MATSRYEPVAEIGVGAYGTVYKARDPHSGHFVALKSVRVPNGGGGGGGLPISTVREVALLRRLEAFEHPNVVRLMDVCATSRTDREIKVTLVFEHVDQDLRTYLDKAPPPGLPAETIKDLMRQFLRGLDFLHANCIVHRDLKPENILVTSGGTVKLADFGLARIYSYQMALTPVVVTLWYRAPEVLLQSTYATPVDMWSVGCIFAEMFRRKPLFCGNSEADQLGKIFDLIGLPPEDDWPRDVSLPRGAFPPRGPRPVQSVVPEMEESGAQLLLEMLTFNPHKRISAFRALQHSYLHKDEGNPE
U5 small nuclear ribonucleoprotein 200 kDa helicase, sequence (O75643 whole entry): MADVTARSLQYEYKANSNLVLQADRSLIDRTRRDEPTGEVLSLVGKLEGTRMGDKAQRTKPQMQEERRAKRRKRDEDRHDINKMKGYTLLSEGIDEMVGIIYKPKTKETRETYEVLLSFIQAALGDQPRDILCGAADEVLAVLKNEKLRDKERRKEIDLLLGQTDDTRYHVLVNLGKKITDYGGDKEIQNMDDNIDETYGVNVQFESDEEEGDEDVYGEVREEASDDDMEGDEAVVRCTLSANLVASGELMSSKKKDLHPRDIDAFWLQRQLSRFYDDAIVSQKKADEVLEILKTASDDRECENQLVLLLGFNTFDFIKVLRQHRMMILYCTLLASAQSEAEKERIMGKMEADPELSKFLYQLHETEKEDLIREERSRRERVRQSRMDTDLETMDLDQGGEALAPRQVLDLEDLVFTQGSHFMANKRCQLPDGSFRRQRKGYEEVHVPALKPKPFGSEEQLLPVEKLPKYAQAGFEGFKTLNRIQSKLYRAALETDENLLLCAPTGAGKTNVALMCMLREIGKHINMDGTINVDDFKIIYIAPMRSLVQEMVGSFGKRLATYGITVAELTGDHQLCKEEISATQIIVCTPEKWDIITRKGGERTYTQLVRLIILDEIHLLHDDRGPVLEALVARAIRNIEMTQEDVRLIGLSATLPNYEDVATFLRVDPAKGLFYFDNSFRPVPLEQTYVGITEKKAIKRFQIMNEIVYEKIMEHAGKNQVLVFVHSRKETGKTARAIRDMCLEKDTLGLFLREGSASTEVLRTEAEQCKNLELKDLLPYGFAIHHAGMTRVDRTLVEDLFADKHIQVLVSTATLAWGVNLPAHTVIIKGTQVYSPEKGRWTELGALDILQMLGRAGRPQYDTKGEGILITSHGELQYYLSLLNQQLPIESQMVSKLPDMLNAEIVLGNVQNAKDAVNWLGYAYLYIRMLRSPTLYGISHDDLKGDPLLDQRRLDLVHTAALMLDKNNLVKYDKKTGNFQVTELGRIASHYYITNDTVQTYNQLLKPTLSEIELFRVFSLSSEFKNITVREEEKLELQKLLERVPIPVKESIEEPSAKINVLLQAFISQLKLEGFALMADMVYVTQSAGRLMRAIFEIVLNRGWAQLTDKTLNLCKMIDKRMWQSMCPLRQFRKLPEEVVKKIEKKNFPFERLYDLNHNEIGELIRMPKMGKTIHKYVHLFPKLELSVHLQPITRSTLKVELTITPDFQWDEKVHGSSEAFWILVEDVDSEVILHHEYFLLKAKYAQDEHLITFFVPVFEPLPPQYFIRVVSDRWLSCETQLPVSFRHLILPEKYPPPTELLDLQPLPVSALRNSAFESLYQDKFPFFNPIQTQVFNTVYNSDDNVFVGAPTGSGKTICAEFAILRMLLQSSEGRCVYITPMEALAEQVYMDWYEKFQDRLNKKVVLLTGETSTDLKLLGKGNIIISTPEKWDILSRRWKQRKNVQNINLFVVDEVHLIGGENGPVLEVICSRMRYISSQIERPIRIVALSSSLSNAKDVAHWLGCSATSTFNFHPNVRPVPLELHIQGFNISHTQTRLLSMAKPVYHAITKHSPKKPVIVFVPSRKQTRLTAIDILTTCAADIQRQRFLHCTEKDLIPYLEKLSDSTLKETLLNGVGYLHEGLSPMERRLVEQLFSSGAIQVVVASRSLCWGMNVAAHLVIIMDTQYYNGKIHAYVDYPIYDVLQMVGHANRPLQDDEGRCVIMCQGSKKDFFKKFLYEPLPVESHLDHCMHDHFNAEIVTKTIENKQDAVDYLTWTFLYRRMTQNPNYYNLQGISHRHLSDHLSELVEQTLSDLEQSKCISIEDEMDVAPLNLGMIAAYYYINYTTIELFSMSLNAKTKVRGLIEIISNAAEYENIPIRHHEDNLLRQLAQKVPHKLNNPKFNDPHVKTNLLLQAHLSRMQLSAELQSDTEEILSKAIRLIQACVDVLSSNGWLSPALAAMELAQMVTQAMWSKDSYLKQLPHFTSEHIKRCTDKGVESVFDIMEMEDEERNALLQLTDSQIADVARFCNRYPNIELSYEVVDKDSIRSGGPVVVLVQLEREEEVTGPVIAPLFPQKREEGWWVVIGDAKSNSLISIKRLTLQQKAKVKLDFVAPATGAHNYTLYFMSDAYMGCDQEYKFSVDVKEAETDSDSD
Fibroblast growth factor receptor 1, sequence (P11362 whole entry): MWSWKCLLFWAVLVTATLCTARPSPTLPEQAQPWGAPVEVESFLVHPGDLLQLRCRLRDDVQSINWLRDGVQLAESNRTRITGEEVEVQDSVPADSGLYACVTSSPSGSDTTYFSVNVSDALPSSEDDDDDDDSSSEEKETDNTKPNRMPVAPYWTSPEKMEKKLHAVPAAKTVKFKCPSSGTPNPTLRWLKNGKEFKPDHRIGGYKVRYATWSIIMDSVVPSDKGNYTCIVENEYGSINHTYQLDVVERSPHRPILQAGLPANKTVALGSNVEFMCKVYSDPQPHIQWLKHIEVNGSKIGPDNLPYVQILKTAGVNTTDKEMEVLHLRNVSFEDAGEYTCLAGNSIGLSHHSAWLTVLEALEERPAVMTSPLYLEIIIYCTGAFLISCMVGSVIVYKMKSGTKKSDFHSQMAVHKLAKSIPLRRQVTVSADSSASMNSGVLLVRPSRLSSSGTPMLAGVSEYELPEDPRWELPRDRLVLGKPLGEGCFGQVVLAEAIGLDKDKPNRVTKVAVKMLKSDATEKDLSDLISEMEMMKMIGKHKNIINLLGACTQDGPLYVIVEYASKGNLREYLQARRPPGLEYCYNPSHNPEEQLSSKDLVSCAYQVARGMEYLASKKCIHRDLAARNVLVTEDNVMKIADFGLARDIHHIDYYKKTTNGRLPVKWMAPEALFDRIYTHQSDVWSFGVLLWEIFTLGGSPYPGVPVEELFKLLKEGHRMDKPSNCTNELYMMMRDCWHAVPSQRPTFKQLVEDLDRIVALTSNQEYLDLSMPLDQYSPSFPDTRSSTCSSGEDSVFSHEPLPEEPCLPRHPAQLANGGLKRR
Focal adhesion kinase 1, sequence (Q05397 whole entry): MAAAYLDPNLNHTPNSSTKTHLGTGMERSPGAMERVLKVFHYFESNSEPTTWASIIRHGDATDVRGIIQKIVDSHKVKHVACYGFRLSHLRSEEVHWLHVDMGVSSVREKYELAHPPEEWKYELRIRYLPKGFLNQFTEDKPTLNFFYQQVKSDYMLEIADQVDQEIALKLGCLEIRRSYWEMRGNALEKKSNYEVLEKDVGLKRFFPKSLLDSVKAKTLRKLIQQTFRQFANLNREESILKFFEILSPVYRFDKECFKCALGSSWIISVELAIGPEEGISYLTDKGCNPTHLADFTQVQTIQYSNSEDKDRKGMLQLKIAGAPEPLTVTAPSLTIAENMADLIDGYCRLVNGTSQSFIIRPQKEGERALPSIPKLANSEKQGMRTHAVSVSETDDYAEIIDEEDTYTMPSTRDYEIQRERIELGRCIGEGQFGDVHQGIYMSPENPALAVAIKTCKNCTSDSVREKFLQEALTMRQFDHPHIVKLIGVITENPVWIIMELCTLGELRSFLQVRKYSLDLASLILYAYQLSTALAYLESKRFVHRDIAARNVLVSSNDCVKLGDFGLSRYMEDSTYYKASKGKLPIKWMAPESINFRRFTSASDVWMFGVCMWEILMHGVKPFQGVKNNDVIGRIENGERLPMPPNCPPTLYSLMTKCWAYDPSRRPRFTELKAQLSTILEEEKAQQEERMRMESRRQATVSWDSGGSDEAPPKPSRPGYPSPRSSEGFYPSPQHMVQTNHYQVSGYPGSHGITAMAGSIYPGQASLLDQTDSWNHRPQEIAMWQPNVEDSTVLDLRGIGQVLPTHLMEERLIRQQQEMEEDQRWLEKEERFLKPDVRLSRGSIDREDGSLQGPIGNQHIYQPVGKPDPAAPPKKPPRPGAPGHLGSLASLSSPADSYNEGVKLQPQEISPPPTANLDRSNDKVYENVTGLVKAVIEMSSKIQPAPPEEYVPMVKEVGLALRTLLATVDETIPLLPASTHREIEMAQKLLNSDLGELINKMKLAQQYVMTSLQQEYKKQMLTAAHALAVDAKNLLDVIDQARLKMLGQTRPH

| Structure (SMILES) | Kd [1] | Kd [2] | Kd [3] | Kd (Ephrin type-B receptor 2) | Kd [4] | Kd [5] | Kd (Focal adhesion kinase 1) | Kd [6] | Kd [7] | Kd [8] | Kd [9] |
| --- | --- | --- | --- | --- | --- | --- | --- | --- | --- | --- | --- |
| Cn1cc(C2=C(c3cn(C4CCN(Cc5ccccn5)CC4)c4ccccc34)C(=O)NC2=O)c2ccccc21 [ENZASTAURIN] | > 30 µM (inactive) | > 30 µM (inactive) |  |  |  |  |  |  |  |  |  |
| CC(C)(C)c1nc(-c2cccc(NS(=O)(=O)c3c(F)cccc3F)c2F)c(-c2ccnc(N)n2)s1 [DABRAFENIB] | > 30 µM (inactive) | 0.364 µM (active) | > 30 µM (inactive) | > 30 µM (inactive) | > 30 µM (inactive) | > 30 µM (inactive) | > 30 µM (inactive) | > 30 µM (inactive) |  |  |  |
| CCn1cc(-c2ccnc3[nH]c(-c4cccc(CN(C)C)c4)cc23)c(-c2ccc(NC(=O)N(C)C)cc2)n1 [GSK-1070916] | > 30 µM (inactive) | > 30 µM (inactive) | > 30 µM (inactive) | > 30 µM (inactive) |  | > 30 µM (inactive) | > 30 µM (inactive) | > 30 µM (inactive) | > 30 µM (inactive) | > 30 µM (inactive) | > 30 µM (inactive) |
| COc1cc(Nc2ncc3c(n2)-c2ccc(Cl)cc2C(c2c(F)cccc2OC)=NC3)ccc1C(=O)O [ALISERTIB] | > 30 µM (inactive) |  | > 30 µM (inactive) | > 30 µM (inactive) |  | > 30 µM (inactive) |  |  | > 30 µM (inactive) | > 30 µM (inactive) | > 30 µM (inactive) |
| N#CC[C@H](C1CCCC1)n1cc(-c2ncnc3[nH]ccc23)cn1 [RUXOLITINIB] | > 30 µM (inactive) | > 30 µM (inactive) |  |  |  |  |  |  |  |  |  |
| C#Cc1cccc(Nc2ncnc3cc(OC)c(OCCCCCCC(=O)NO)cc23)c1 [CUDC-101] | > 30 µM (inactive) | > 30 µM (inactive) | > 30 µM (inactive) | > 30 µM (inactive) | > 30 µM (inactive) | > 30 µM (inactive) | > 30 µM (inactive) | > 30 µM (inactive) | > 30 µM (inactive) | > 30 µM (inactive) | > 30 µM (inactive) |
| CNC(=O)c1nn(C)c2c1C(C)(C)Cc1cnc(Nc3ccc(N4CCN(C)CC4)cc3)nc1-2 [MILCICLIB] | > 30 µM (inactive) | > 30 µM (inactive) | > 30 µM (inactive) | 0.767 µM (active) | 1.42 µM (active) | > 30 µM (inactive) | > 30 µM (inactive) | > 30 µM (inactive) | > 30 µM (inactive) |  | > 30 µM (inactive) |
| CC(=O)NCC(=O)N1[C@@H]2CC[C@H]1c1ccc(Nc3ncc(C(F)(F)F)c(NC4CCC4)n3)cc12 [PF-03814735] | > 30 µM (inactive) |  | > 30 µM (inactive) | > 30 µM (inactive) |  | > 30 µM (inactive) |  |  | > 30 µM (inactive) | > 30 µM (inactive) |  |
| Cc1[nH]c(/C=C2\C(=O)Nc3ccccc32)c(C)c1CCC(=O)O [ORANTINIB] | > 30 µM (inactive) |  |  | > 30 µM (inactive) |  | > 30 µM (inactive) |  |  | > 30 µM (inactive) | > 30 µM (inactive) |  |
| CNC(=O)c1ccccc1Sc1ccc2c(/C=C/c3ccccn3)n[nH]c2c1 [AXITINIB] | > 30 µM (inactive) | > 30 µM (inactive) |  |  |  |  |  |  |  |  |  |
| C[C@@H](Oc1cc(-n2cnc3ccc(CN4CCN(C)CC4)cc32)sc1C(N)=O)c1ccccc1C(F)(F)F [GSK-461364] | > 30 µM (inactive) | > 30 µM (inactive) |  |  |  |  |  |  |  |  |  |
| CN1CCN(CCOc2cc(OC3CCOCC3)c3c(Nc4c(Cl)ccc5c4OCO5)ncnc3c2)CC1 [SARACATINIB] | > 30 µM (inactive) | > 30 µM (inactive) | > 30 µM (inactive) | 9.42 µM (active) | > 30 µM (inactive) | > 30 µM (inactive) | > 30 µM (inactive) | > 30 µM (inactive) | > 30 µM (inactive) | > 30 µM (inactive) | > 30 µM (inactive) |
| CNC(=O)c1cc(Oc2ccc(NC(=O)Nc3cc(C(C)(C)C)nn3-c3ccc4ncccc4c3)c(F)c2)ccn1 [REBASTINIB] | > 30 µM (inactive) | 1.07 µM (active) | > 30 µM (inactive) | > 30 µM (inactive) |  | > 30 µM (inactive) | > 30 µM (inactive) | > 30 µM (inactive) | > 30 µM (inactive) |  | > 30 µM (inactive) |
| CCOc1cc2ncc(C#N)c(Nc3ccc(F)c(Cl)c3)c2cc1NC(=O)/C=C/CN(C)C [PELITINIB] | > 30 µM (inactive) | > 30 µM (inactive) | > 30 µM (inactive) | > 30 µM (inactive) | > 30 µM (inactive) | > 30 µM (inactive) |  | > 30 µM (inactive) | > 30 µM (inactive) | > 30 µM (inactive) | > 30 µM (inactive) |
| O=C(NOCCO)c1cc(CN2OCCCC2=O)c(F)c(F)c1Nc1ccc(I)cc1F [RO-4987655] | > 30 µM (inactive) | > 30 µM (inactive) |  |  |  |  |  |  |  |  |  |
| NC(=O)c1c(OCc2c(F)cc(Br)cc2F)nsc1NC(=O)NCCCCN1CCCC1 [OSI-632] | > 30 µM (inactive) |  | > 30 µM (inactive) | > 30 µM (inactive) |  | > 30 µM (inactive) |  |  | > 30 µM (inactive) | > 30 µM (inactive) |  |
| O=C(Nc1c[nH]nc1-c1nc2cc(CN3CCOCC3)ccc2[nH]1)NC1CC1 [AT-9283] | > 30 µM (inactive) | > 30 µM (inactive) | > 30 µM (inactive) | > 30 µM (inactive) |  | > 30 µM (inactive) | > 30 µM (inactive) | > 30 µM (inactive) | > 30 µM (inactive) | 1.29 µM (active) | 3.19 µM (active) |
